The results in this text go back to ChEMBL document CHEMBL5445981, “Affinity On-target Cellular Literature for EUbOPEN Chemogenomic Library” (2024).

Broadly, the IC50 is the concentration needed to halve the response being measured. A word on the EC50: it is the concentration needed to bring the measured effect to its halfway point. A high value points to a need for much substance. By Ki is commonly meant a measure of affinity in units of concentration, obtained from inhibition or displacement. A low value points to tighter binding.

Experiment [1] addresses Cyclin-dependent kinase 7 (Homo sapiens, UniProt P50613). Description: Affinity On-target Cellular interaction: (Radioactive in vitro kinase assays (from cellular wild-type CDK7 immunoprecipitated in HeLa cells)) EUB0001635a CDK7. Format: cell-based. The arrangement: mode of action Covalent inhibitor, recommended concentration 1 uM.
In experiment [2] the target is Chromatin remodeling regulator CECR2 (Homo sapiens, UniProt Q9BXF3). Put plainly: Affinity On-target Cellular interaction: (NanoBRET assay (NL-FL […] in HEK293 cells)) EUB0000233b CECR2. Format: cell-based. The arrangement: mode of action Inhibitor, recommended concentration 1 uM. For orientation: In BRET a luciferase serves as donor, and the signal depends on an acceptor being close.

In experiment [3] the target is Nucleosome-remodeling factor subunit BPTF (Homo sapiens, UniProt Q12830). Description: Affinity On-target Cellular interaction: (NanoBRET assay (NL-BPTF BD in HEK293 cells)) EUB0000233b BPTF. The arrangement: mode of action Inhibitor, recommended concentration 1 uM. Format: cell-based.
The target in experiment [4] is Cyclin-G-associated kinase (Homo sapiens, UniProt O14976). Description: Affinity On-target Cellular interaction: (NanoBRET assay (HEK293T cells)) EUB0000229b GAK. The experiment is classed as cell-based, HEK-293T. The arrangement: mode of action Negative control for SGC-GAK-1, recommended concentration 1 uM.
Experiment [5] deals with Calcium/calmodulin-dependent protein kinase type 1D (Homo sapiens, UniProt Q8IU85). Put plainly: Affinity On-target Cellular interaction: (NanoBRET assay (in HEK293T cells)) EUB0000878a CAMK1D. The experiment is classed as cell-based, HEK-293T. More on the design: mode of action Inhibitor, recommended concentration 100 nM.
Chain of Calcium/calmodulin-dependent protein kinase type 1D (Q8IU85 whole entry): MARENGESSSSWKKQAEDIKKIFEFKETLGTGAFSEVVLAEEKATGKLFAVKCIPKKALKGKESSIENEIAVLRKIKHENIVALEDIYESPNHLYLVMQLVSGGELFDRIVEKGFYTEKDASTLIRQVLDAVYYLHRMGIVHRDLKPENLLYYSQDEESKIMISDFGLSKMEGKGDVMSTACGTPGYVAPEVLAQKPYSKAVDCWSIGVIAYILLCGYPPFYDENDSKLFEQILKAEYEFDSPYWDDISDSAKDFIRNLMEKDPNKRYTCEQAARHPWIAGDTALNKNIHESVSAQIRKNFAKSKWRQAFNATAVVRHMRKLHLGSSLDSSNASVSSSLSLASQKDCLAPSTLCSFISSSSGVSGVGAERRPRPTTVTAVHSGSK
In experiment [6] the target is Dual specificity protein kinase CLK4 (Homo sapiens, UniProt Q9HAZ1). Put plainly: Affinity On-target Cellular interaction: (NanoBRET assay (in HEK293T cells)) EUB0000008b CLK4. The experiment is classed as cell-based, HEK-293T. The arrangement: mode of action Inhibitor, recommended concentration 1 uM.
Experiment [7] deals with Dual specificity tyrosine-phosphorylation-regulated kinase 1A (Homo sapiens, UniProt Q13627). Description: Affinity On-target Cellular interaction: (NanoBRET assay (in HEK293T cells)) EUB0000008b DYRK1A. Format: cell-based, HEK-293T. The arrangement: mode of action Inhibitor, recommended concentration 1 uM.
The target of experiment [8] is Dual specificity tyrosine-phosphorylation-regulated kinase 2 (Homo sapiens, UniProt Q92630). Put plainly: Affinity On-target Cellular interaction: (NanoBRET assay (in HEK293T cells)) EUB0000008b DYRK2. Format: cell-based, HEK-293T. More on the design: mode of action Inhibitor, recommended concentration 1 uM.
The target of experiment [9] is Dual specificity protein kinase CLK1 (Homo sapiens, UniProt P49759). Put plainly: Affinity On-target Cellular interaction: (NanoBRET assay (HEK293T cells)) EUB0001049a CLK1. Format: cell-based, HEK-293T. The arrangement: mode of action Negative control for SGC-CLK-1 (UNC-CAF-170 ), recommended concentration 1 uM.
Chain of Dual specificity protein kinase CLK1 (P49759 whole entry): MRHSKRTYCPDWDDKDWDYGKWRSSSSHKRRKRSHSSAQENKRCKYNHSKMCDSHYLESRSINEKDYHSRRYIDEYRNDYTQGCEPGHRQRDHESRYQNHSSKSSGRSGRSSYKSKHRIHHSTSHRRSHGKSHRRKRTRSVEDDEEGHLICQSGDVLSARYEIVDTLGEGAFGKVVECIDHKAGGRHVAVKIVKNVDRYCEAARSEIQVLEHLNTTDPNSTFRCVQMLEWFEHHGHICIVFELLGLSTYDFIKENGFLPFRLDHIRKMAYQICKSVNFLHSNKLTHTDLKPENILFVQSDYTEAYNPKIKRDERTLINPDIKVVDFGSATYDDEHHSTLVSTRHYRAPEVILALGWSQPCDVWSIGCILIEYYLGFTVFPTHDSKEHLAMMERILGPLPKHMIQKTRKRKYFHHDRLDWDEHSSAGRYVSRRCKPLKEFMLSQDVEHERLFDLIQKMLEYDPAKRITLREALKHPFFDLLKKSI
For experiment [10], the target named is Dual specificity protein kinase CLK2 (Homo sapiens, UniProt P49760). Description: Affinity On-target Cellular interaction: (NanoBRET assay (HEK293T cells)) EUB0001049a CLK2. Format: cell-based, HEK-293T. More on the design: mode of action Negative control for SGC-CLK-1 (UNC-CAF-170 ), recommended concentration 1 uM.
Chain of Dual specificity protein kinase CLK2 (P49760 whole entry): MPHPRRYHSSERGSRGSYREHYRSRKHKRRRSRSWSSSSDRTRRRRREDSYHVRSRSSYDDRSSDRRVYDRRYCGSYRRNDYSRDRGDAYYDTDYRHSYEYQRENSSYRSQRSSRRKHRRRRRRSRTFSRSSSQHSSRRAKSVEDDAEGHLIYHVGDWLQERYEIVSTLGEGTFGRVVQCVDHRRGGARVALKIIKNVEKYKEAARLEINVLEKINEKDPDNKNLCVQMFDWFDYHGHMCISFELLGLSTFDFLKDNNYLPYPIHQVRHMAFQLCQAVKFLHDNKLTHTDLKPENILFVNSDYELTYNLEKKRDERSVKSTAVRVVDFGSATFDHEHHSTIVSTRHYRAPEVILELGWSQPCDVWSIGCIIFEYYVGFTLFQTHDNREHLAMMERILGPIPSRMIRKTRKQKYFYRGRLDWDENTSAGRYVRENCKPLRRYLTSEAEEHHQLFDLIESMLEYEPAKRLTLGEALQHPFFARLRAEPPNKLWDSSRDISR
Experiment [11] addresses Histone-arginine methyltransferase CARM1 (Homo sapiens, UniProt Q86X55). Put plainly: Affinity On-target Cellular interaction: (Western Blot (dimethylation of BAF155, BAF155me2a/BAF155, in HEK293T cells)) EUB0000255b CARM1. The arrangement: mode of action Negative control for TP-064, recommended concentration 1 uM. Format: cell-based, HEK-293T. (A western blot detects proteins with antibodies after separation by electrophoresis.)

The target in experiment [12] is SRSF protein kinase 1 (Homo sapiens, UniProt Q96SB4).
Chain of SRSF protein kinase 1 (Q96SB4 whole entry): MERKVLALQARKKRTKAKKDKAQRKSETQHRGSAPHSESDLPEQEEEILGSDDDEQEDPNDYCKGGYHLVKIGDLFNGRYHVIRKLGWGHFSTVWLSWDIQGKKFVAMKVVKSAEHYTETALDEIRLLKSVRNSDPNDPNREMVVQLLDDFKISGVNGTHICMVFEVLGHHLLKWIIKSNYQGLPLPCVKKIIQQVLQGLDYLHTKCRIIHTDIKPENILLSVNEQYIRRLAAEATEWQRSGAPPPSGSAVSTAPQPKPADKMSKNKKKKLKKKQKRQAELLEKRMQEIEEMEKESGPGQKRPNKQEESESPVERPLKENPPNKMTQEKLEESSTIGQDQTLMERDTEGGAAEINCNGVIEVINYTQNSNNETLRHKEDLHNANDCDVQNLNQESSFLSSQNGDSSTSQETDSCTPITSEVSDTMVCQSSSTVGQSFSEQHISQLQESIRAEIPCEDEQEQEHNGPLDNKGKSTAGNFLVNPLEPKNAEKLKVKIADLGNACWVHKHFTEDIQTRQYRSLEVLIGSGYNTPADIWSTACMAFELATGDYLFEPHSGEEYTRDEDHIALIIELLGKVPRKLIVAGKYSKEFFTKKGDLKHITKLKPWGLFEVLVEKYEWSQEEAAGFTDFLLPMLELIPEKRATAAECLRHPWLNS
In experiment [13] the target is SRSF protein kinase 2 (Homo sapiens, UniProt P78362).
Experiment [14] deals with Histone-lysine N-methyltransferase NSD3 (Homo sapiens, UniProt Q9BZ95). Description: Affinity On-target Cellular interaction: (NanoBRET assay (Nluc-NSD3-PWWP1 fusion protein in U2OS cells)) EUB0000270b NSD3. The arrangement: mode of action Negative control for BI-9321, recommended concentration 1 uM. Format: cell-based.
For experiment [15], the target named is Serine/threonine-protein kinase 17A (Homo sapiens, UniProt Q9UEE5).
The target of experiment [16] is T1, Casein kinase I isoform delta (Homo sapiens, UniProt P48730). Put plainly: Affinity On-target Cellular interaction: (NanoBRET asssay (HEK293T cells)) EUB0001201a CSNK1D. The experiment is classed as cell-based, HEK-293T. The arrangement: mode of action Negative control for MU1742, recommended concentration 1 uM.
T1 sequence (P48730 whole entry, canonical isoform): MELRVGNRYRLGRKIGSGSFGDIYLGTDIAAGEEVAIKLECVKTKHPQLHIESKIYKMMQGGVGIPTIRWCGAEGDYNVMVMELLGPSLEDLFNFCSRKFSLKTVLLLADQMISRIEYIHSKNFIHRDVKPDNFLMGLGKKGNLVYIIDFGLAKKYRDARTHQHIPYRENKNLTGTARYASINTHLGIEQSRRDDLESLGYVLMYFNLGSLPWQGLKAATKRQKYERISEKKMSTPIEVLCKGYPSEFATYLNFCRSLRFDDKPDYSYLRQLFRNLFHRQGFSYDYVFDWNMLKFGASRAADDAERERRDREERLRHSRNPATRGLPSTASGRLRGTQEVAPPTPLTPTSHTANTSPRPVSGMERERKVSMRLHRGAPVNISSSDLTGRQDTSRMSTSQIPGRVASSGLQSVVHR
Experiment [17] deals with T2, Casein kinase I isoform epsilon (Homo sapiens, UniProt P49674). Put plainly: Affinity On-target Cellular interaction: (NanoBRET asssay (HEK293T cells)) EUB0001201a CSNK1E. Format: cell-based, HEK-293T. More on the design: mode of action Negative control for MU1742, recommended concentration 1 uM.
T2 sequence (P49674 whole entry, canonical isoform): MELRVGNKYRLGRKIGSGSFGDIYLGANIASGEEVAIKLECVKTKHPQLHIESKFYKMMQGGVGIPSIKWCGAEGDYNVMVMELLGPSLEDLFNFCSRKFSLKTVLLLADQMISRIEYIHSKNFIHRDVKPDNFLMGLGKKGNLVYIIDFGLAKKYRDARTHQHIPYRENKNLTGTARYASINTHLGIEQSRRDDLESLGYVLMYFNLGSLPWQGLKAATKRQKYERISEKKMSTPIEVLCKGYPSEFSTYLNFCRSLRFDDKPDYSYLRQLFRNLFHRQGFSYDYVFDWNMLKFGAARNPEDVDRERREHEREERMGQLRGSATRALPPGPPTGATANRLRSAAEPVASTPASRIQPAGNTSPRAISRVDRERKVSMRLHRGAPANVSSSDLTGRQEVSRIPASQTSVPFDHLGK
For experiment [18], the target named is Serine/threonine-protein kinase SIK1 (Homo sapiens, UniProt P57059). Put plainly: Affinity On-target Cellular interaction: (NanoBRET assay (HEK293T cells)) EUB0001479a SIK1. Format: cell-based, HEK-293T. More on the design: mode of action Negative control for MRIA9, recommended concentration 1 uM.
Experiment [19] concerns the target Serine/threonine-protein kinase SIK2 (Homo sapiens, UniProt Q9H0K1). Put plainly: Affinity On-target Cellular interaction: (NanoBRET assay (HEK293T cells)) EUB0001479a SIK2. Format: cell-based, HEK-293T. The arrangement: mode of action Negative control for MRIA9, recommended concentration 1 uM.
Experiment [20] concerns the target Serine/threonine-protein kinase SIK3 (Homo sapiens, UniProt Q9Y2K2). Put plainly: Affinity On-target Cellular interaction: (NanoBRET assay (HEK293T cells)) EUB0001479a SIK3. The experiment is classed as cell-based, HEK-293T. The arrangement: mode of action Negative control for MRIA9, recommended concentration 1 uM.
In experiment [21] the target is Casein kinase I isoform alpha (Homo sapiens, UniProt P48729). Description: Affinity On-target Cellular interaction: (NanoBRET asssay (HEK293T cells)) EUB0001205a CSNK1A1. The experiment is classed as cell-based, HEK-293T. The arrangement: mode of action Inhibitor, recommended concentration 1 uM.
In experiment [22] the target is T1, Casein kinase I isoform delta. Description: Affinity On-target Cellular interaction: (NanoBRET asssay (HEK293T cells)) EUB0001205a CSNK1D. The experiment is classed as cell-based, HEK-293T. The arrangement: mode of action Inhibitor, recommended concentration 1 uM.
Experiment [23] concerns the target T2, Casein kinase I isoform epsilon. Description: Affinity On-target Cellular interaction: (NanoBRET asssay (HEK293T cells)) EUB0001205a CSNK1E. Format: cell-based, HEK-293T. The arrangement: mode of action Inhibitor, recommended concentration 1 uM.
The target of experiment [24] is T3, Inhibitor of nuclear factor kappa-B kinase subunit beta (Homo sapiens, UniProt O14920). Put plainly: Affinity On-target Cellular interaction: (NanoBRET assay (HEK293T cells)) EUB0001576a IKBKB. Format: cell-based, HEK-293T. More on the design: mode of action Negative control for BI 605906, recommended concentration 1 uM.
T3 sequence (O14920 whole entry): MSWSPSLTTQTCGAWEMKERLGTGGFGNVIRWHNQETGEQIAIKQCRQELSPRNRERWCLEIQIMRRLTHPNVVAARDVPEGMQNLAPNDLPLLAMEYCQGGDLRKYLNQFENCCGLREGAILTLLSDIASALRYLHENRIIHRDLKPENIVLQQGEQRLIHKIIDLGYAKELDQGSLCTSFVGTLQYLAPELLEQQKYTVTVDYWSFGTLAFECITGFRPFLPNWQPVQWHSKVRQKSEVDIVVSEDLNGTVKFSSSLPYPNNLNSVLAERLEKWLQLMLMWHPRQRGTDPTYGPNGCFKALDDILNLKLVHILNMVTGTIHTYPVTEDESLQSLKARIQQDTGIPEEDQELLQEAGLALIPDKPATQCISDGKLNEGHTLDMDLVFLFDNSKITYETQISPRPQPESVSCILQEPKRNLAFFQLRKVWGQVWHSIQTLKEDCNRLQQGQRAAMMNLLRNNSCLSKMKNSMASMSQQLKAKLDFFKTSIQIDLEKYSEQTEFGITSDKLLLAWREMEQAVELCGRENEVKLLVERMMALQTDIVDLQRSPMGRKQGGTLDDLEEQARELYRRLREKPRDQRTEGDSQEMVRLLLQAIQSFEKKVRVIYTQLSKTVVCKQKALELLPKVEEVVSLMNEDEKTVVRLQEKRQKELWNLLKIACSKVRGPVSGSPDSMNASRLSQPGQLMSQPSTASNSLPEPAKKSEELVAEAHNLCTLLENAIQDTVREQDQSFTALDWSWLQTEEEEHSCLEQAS
The target in experiment [25] is T3, Inhibitor of nuclear factor kappa-B kinase subunit beta. Description: Affinity On-target Cellular interaction: (Cellular assay (inhibition of phospho-IKBKB in HeLa cells)) EUB0001492b IKBKB. Format: cell-based. More on the design: mode of action Inhibitor, recommended concentration 1 uM.
For experiment [26], the target named is Receptor tyrosine-protein kinase erbB-2 (Homo sapiens, UniProt P04626). Description: Affinity On-target Cellular interaction: (Western Blot (EGF-induced autophosphorylation of the chimera EGFR extracellular domain and erbB2 intracellular domain in NIH 3T3 cells)) EUB0000595a ERBB2. Format: cell-based. The arrangement: mode of action Inhibitor, recommended concentration 1 uM. The settings on record: nih3t3.

Experiment [27] concerns the target RAC-alpha serine/threonine-protein kinase (Homo sapiens, UniProt P31749). Description: Affinity On-target Cellular interaction: (NanoBRET assay (HEK293T cells)) EUB0001563a AKT1. The settings on record: hek-293t. More on the design: mode of action Negative control for Borussertib, recommended concentration 1 uM. The experiment is classed as cell-based.
Experiment [28] concerns the target RAC-beta serine/threonine-protein kinase (Homo sapiens, UniProt P31751). Put plainly: Affinity On-target Cellular interaction: (NanoBRET assay (HEK293T cells)) EUB0001563a AKT2. The arrangement: mode of action Negative control for Borussertib, recommended concentration 1 uM. Particulars: hek-293t. The experiment is classed as cell-based.

Where only a bound is given, the exact number is not on record here.

Chain of RAC-alpha serine/threonine-protein kinase (P31749 whole entry): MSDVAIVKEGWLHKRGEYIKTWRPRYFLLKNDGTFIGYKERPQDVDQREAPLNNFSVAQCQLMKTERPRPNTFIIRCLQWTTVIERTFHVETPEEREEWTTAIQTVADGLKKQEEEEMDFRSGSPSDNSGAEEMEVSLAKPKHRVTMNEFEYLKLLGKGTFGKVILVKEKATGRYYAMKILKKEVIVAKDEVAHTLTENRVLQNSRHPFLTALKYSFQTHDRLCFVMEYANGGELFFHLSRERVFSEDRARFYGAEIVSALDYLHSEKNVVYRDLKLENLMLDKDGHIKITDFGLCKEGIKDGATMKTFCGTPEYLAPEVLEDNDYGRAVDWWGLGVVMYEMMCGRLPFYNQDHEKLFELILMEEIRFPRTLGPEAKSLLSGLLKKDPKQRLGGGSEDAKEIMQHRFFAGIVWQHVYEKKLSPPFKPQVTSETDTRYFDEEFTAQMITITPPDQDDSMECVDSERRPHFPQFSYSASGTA
Chain of RAC-beta serine/threonine-protein kinase (P31751 whole entry): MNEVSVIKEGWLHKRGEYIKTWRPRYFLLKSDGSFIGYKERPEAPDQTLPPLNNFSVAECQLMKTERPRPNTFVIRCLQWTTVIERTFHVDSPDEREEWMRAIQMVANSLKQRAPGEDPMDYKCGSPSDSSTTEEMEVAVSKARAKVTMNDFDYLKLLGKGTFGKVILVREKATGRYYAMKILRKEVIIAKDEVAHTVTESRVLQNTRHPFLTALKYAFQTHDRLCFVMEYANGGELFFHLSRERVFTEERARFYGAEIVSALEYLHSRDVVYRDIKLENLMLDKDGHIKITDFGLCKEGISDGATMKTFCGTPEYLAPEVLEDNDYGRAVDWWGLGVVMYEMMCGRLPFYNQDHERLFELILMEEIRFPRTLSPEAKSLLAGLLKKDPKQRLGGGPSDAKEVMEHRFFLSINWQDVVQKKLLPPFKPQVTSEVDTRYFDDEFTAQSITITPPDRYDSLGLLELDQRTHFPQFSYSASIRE
Chain of Cyclin-dependent kinase 7 (P50613 whole entry): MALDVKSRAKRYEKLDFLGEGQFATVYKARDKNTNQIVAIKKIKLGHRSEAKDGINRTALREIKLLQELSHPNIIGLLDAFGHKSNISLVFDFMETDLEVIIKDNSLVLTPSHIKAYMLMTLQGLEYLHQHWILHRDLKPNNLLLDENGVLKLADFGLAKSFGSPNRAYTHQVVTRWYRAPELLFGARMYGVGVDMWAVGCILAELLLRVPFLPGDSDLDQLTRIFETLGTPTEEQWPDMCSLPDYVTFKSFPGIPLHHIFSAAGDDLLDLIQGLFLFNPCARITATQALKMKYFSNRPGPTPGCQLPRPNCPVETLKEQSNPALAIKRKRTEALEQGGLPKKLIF

Take `C=CC(=O)Nc1ccc(C(=O)Nc2n[nH]c3c2CN(C(=O)N[C@H](CN(C)C)c2ccccc2)C3(C)C)cc1`: the 50% inhibitory concentration (IC50) in experiment [1] is 0.0625 µM.
Turning to `CN(C)CCCOc1ccc(-c2cc(NCCCn3cccn3)nc(S(C)(=O)=O)n2)cc1`, the EC50 in experiment [2] is 0.289 µM; in [3], 0.228 µM.
Turning to `COc1cc(N(C)c2ccnc3ccc(C(F)(F)F)cc23)cc(OC)c1OC`, in [4], the half-inhibitory concentration (IC50) is greater than 5 µM.
Turning to `CC(C)c1cc(Nc2nc(N3CCC[C@H](N)C3)ncc2C(N)=O)cc(C(C)C)n1`, the IC50 in experiment [5] amounted to 0.029 µM.
In the case of `Cn1cc(-c2ccc3occ(-c4cccc(-c5ccncc5)c4)c3n2)cn1`, the Ki turned out to be 0.023 µM in experiment [6], 6.58 µM in experiment [7] and 1.7 µM in experiment [8].
For the molecule `COc1cc(Nc2nc(C)cc(-c3cnn4nc(OC)ccc34)n2)cc(C(F)(F)F)c1`, the concentration for half-maximal inhibition (IC50) in experiment [9] and in experiment [10] was greater than 10 µM throughout.
`COCCN1CCC(c2cc(CN(C)C(=O)c3cccc(Oc4ccccc4)c3)ccn2)CC1` returned a half-inhibitory concentration (IC50) in experiment [11] greater than 10 µM.
In the case of `CN(c1ncccc1CNc1ccnc(-c2cc3cc(Cl)ccc3[nH]2)n1)S(C)(=O)=O`, the half-maximal inhibitory concentration (IC50) in [12] and in experiment [13] was greater than 50 µM throughout.
The molecule `Cc1cc(CN)cc(C)c1-c1ncn(C)c1-c1cncn1C` yielded an IC50 in [14] greater than 10 µM.
`CN1CCN(C(=O)c2ccc3cc2OCCOCCNc2ccn4ncc-3c4n2)CC1` came in with a concentration for half-maximal inhibition (IC50) in [15] greater than 45 µM.
Turning to `CCc1ccc(-c2ncn(CC3(F)CCN(C)CC3)c2-c2ccnc3[nH]ccc23)nc1`, the IC50 in experiment [16] and in [17] was greater than 50 µM each time.
On to `CN(C)c1ncc2cc(-c3ccc(-c4ncccc4F)cc3Cl)c(=O)n(C[C@H]3OC[C@H](N)CO3)c2n1`, for which the IC50 in experiment [18], in experiment [19] and in experiment [20] was 14 µM in each case.
As to `CN1CCC(F)(Cn2cnc(-c3ccc(F)cn3)c2-c2ccnc3[nH]ccc23)CC1`, the results for the 50% inhibitory concentration (IC50) in experiment [21], in [22] and in experiment [23] were 3.5 µM, 0.047 µM and 0.22 µM, respectively.
As for `CN(C)C(=O)c1sc2nc(N3CCC(S(C)(=O)=O)CC3)cc(C(F)(F)F)c2c1N` [BI-5026], the IC50 in [24] was greater than 20 µM.
In the case of `CCC(F)(F)c1cc(N2CCC(S(C)(=O)=O)CC2)nc2sc(C(N)=O)c(N)c12` [BI-605906], it took 0.9 µM to reach a half-maximal effect in [25] (EC50).
On to `COCC(=O)NC/C=C/c1ccc2ncnc(Nc3ccc(Oc4ccc(C)nc4)c(C)c3)c2c1` [CP-724714], for which, in experiment [26], the IC50 is 0.032 µM.
For `C=CC(=O)Nc1ccc2[nH]c(=O)n(C3CCN(Cc4ccc(-c5ccc6c(c5)NC(=O)CO6)cc4)CC3)c2c1` [RL2578], the figures for the half-maximal inhibitory concentration (IC50) in experiment [27] and in experiment [28] were 1.9 µM and 8.3 µM, respectively.
